± gives the standard deviation of the averaged measurements.
Compound: CCOC(=O)CC(=O)C(F)(F)C(F)(F)F [Ethyl pentafluoropropionyl acetate] (in DMSO)
Assay: level (log10 ratio to DMSO vehicle control); higher = higher biomarker level / cell amount than vehicle control
Procedure: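 BioMAP Diversity Plus panel of 12 human primary cell co-culture systems (3C, 4H, LPS, SAg, BT, BF4T, BE3C, CASM3C, HDF3CGF, KF3CT, MyoF, Mphg). Compounds were added 1 h before stimulation and left for 24 h (MyoF 48 h; BT 72 h for soluble read-outs or 6 d for IgG). Biomarkers were read by ELISA, cytotoxicity by SRB, PBMC viability and proliferation by Alamar Blue. Each well value was divided by the mean of 8 DMSO control wells on the same plate and log10 transformed; duplicate blinded samples were tested at 4 concentrations.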

| Test System | level (log10) (6700 nM) | level (log10) (20000 nM) | level (log10) (60000 nM) |
| --- | --- | --- | --- |
| 3C:CD87/uPAR | 0.011 ± 0.0042 | 0.0075 ± 0.00071 | -0.003 ± 0.011 |
| 3C:CXCL8/IL-8 | -0.0105 ± 0.0092 | -0.006 ± 0.0071 | 0.022 ± 0.031 |
| 3C:CXCL9/MIG | 0.001 ± 0.0028 | -0.0015 ± 0.0092 | 0.0025 ± 0.0078 |
| 3C:HLA-DR | 0.019 ± 0.0099 | 0.0125 ± 0.054 | 0.01 ± 0.047 |
| 3C:Proliferation | -0.0145 ± 0.043 | -0.033 ± 0.011 | -0.0135 ± 0.026 |
| 3C:SRB | 0.006 ± 0.0085 | 0.007 ± 0.0085 | 0.01 ± 0.034 |
| 4H:CCL2/MCP-1 | -0.0235 ± 0.029 | -0.0455 ± 0.064 | -0.008 ± 0.1 |
| 4H:CCL26/Eotaxin-3 | -0.007 ± 0.024 | 0.006 ± 0.0085 | -0.019 ± 0.018 |
| 4H:CD62P/P-selectin | 0.005 | -0.012 ± 0.038 | 0.009 ± 0.013 |
| 4H:CD87/uPAR | -0.0055 ± 0.0064 | -0.0585 ± 0.07 | -0.0565 ± 0.13 |
| 4H:CD106/VCAM-1 | -0.003 ± 0.034 | 0.03 ± 0.018 | 0.0215 ± 0.013 |
| 4H:SRB | 0.0055 ± 0.005 | 0.0045 ± 0.012 | 0.0015 ± 0.028 |
| 4H:VEGFR2 | -0.0375 ± 0.036 | -0.0265 ± 0.06 | -0.022 ± 0.15 |
| BE3C:CD54/ICAM-1 | 0.0175 ± 0.011 | 0.0185 ± 0.018 | 0.006 ± 0.0042 |
| BE3C:CD87/uPAR | 0.0145 ± 0.03 | -0.0045 ± 0.023 | 0.0065 ± 0.03 |
| BE3C:CXCL8/IL-8 | 0.0095 ± 0.03 | 0.017 ± 0.021 | 0.032 ± 0.0014 |
| BE3C:CXCL9/MIG | 0.001 ± 0.0099 | 0.001 ± 0.0028 | 0.006 ± 0.0028 |
| BE3C:CXCL10/IP-10 | -0.004 ± 0.011 | -0.013 ± 0.0028 | -0.008 ± 0.0042 |
| BE3C:CXCL11/I-TAC | 0.002 ± 0.028 | 0.002 ± 0.0099 | -0.0015 ± 0.0078 |
| BE3C:EGFR | -0.006 ± 0.0099 | 0.0025 ± 0.005 | -0.006 ± 0.023 |
| BE3C:HLA-DR | 0.014 ± 0.023 | -0.006 ± 0.0014 | -0.0005 ± 0.005 |
| BE3C:IL-1alpha | 0.0125 ± 0.03 | -0.011 ± 0.044 | 0.0285 ± 0.005 |
| BF4T:CCL2/MCP-1 | -0.006 ± 0.011 | -0.0145 ± 0.00071 | -0.0015 ± 0.0078 |

| Test System | level (log10) (6700 nM) | level (log10) (20000 nM) | level (log10) (60000 nM) |
| --- | --- | --- | --- |
| BF4T:CCL26/Eotaxin-3 | 0.014 ± 0.0014 | 0.003 ± 0.014 | 0.0015 ± 0.03 |
| BF4T:CD54/ICAM-1 | -0.0075 ± 0.0064 | -0.003 ± 0.014 | -0.02 ± 0.0071 |
| BF4T:CD90 | -0.009 ± 0.018 | -0.0015 ± 0.013 | -0.0135 ± 0.012 |
| BF4T:CD106/VCAM-1 | -0.0035 ± 0.016 | 0.0155 ± 0.013 | -0.037 ± 0.031 |
| BF4T:CXCL8/IL-8 | 0.0095 ± 0.012 | -0.0015 ± 0.023 | 0.021 ± 0.011 |
| BF4T:IL-1alpha | 0.017 ± 0.021 | 0.0035 ± 0.018 | 0.0315 ± 0.0035 |
| BF4T:Keratin 8/18 | 0.0085 ± 0.005 | 0.0275 ± 0.052 | 0.002 ± 0.016 |
| BF4T:MMP-1 | -0.0045 ± 0.03 | -0.0005 ± 0.018 | 0.0155 ± 0.0035 |
| BF4T:MMP-3 | 0.0105 ± 0.029 | -0.012 ± 0.047 | -0.0025 ± 0.052 |
| BF4T:MMP-9 | 0.002 ± 0.038 | -0.007 ± 0.044 | -0.007 ± 0.044 |
| BF4T:PAI-I | 0.0015 ± 0.011 | 0.004 ± 0.011 | -0.0025 ± 0.011 |
| BF4T:SRB | -0.004 | -0.0045 ± 0.0035 | -0.002 ± 0.0057 |
| BF4T:tPA | -0.0045 ± 0.0092 | -0.0035 ± 0.0092 | -0.0145 ± 0.011 |
| BF4T:uPA | -0.0145 ± 0.023 | -0.0045 ± 0.013 | -0.0175 ± 0.025 |
| BT:B cell Proliferation | 0.012 ± 0.017 | -0.006 ± 0.011 | 0.0035 ± 0.022 |
| BT:PBMC Cytotoxicity | -0.0045 ± 0.026 | 0.011 ± 0.0099 | -0.0095 ± 0.029 |
| BT:Secreted IgG | 0.024 ± 0.014 | 0.025 ± 0.0071 | 0.013 ± 0.0014 |
| BT:sIL-2 | -0.058 ± 0.099 | -0.0055 ± 0.04 | -0.007 ± 0.069 |
| BT:sIL-6 | 0.019 ± 0.099 | 0.046 ± 0.11 | -0.053 ± 0.1 |
| BT:sIL-17A | -0.088 ± 0.0014 | -0.0195 ± 0.032 | -0.0685 ± 0.081 |
| BT:sIL-17F | 0.0355 ± 0.0092 | 0.0155 ± 0.0035 | -0.012 ± 0.093 |
| BT:sTNF-alpha | -0.124 ± 0.17 | 0.017 ± 0.072 | -0.0495 ± 0.07 |
| LPS:CCL2/MCP-1 | -0.025 ± 0.0085 | -0.0345 ± 0.018 | -0.0125 ± 0.018 |

| Test System | level (log10) (6700 nM) | level (log10) (20000 nM) | level (log10) (60000 nM) |
| --- | --- | --- | --- |
| LPS:CD40 | 0.015 ± 0.0014 | -0.0245 ± 0.015 | -0.0335 ± 0.0064 |
| LPS:CD62E/E-Selectin | 0.015 ± 0.0085 | 0.0055 ± 0.018 | 0.0095 ± 0.039 |
| LPS:CD69 | -0.02 ± 0.013 | -0.048 ± 0.02 | -0.021 ± 0.072 |
| LPS:CD106/VCAM-1 | 0.004 ± 0.011 | -0.0105 ± 0.037 | -0.0135 ± 0.026 |
| LPS:CD141/Thrombomodulin | 0.0635 ± 0.016 | 0.0625 ± 0.012 | 0.077 ± 0.055 |
| LPS:CD142/Tissue Factor | -0.01 ± 0.021 | -0.032 ± 0.028 | -0.002 ± 0.033 |
| LPS:CXCL8/IL-8 | -0.022 ± 0.025 | -0.01 ± 0.0071 | -0.0005 ± 0.023 |
| LPS:IL-1alpha | 0 ± 0.034 | -0.0335 ± 0.025 | 0.0115 ± 0.019 |
| LPS:M-CSF | -0.021 ± 0.011 | 0.0085 ± 0.019 | 0.012 ± 0.088 |
| LPS:SRB | 0.0015 ± 0.0021 | 0 ± 0.0028 | -0.004 ± 0.0085 |
| LPS:sPGE2 | 0.0175 ± 0.012 | -0.0005 ± 0.013 | 0.034 ± 0.0014 |
| LPS:sTNF-alpha | 0.0125 ± 0.015 | 0.0095 ± 0.0064 | 0.0085 ± 0.012 |
| SAg:CCL2/MCP-1 | -0.0005 ± 0.011 | -0.0225 ± 0.0078 | 0.011 ± 0.0085 |
| SAg:CD38 | -0.0055 ± 0.049 | 0.019 ± 0.045 | -0.0175 ± 0.0021 |
| SAg:CD40 | 0.005 ± 0.0028 | -0.0205 ± 0.0021 | -0.0275 ± 0.0035 |
| SAg:CD62E/E-Selectin | -0.0005 ± 0.018 | -0.006 ± 0.0028 | 0.004 ± 0.033 |
| SAg:CD69 | 0.0075 ± 0.026 | -0.0015 ± 0.029 | 0.019 ± 0.05 |
| SAg:CXCL8/IL-8 | -0.023 ± 0.016 | -0.0475 ± 0.032 | -0.007 ± 0.085 |
| SAg:CXCL9/MIG | -0.001 ± 0.011 | -0.015 ± 0.0099 | 0.0065 ± 0.0021 |
| SAg:PBMC Cytotoxicity | -0.0055 ± 0.032 | -0.005 ± 0.025 | -0.0015 ± 0.021 |
| SAg:Proliferation | 0.001 ± 0.065 | -0.004 ± 0.025 | 0.0315 ± 0.047 |
| SAg:SRB | 0 ± 0.0057 | 0.004 | -0.003 ± 0.02 |
